The values below come from patent US8227470B2, “Combination treatment of solid cancers with antimetabolites and tyrosine kinase inhibitors” (AB Science, priority 2007, dated 2012).

In test [1] the test system is human mast cell line expressing the JMΔ27 mutated c-kit. Description: Apoptosis induction in mast cell line. The class given is cell-based. The following applies: 0.1 μM, after 48 hours; control cells 10% apoptotic. As to the method:
(§1) In this experiment, after 48 hours, 0.1 μM AB1010 induced apoptosis of approximately 50% versus control cells in which 10% of cells were apoptotic. In addition, a separate cell line (Ba/F3-derived) expressing JMΔ27 was tested and apoptosis was induced to a level of approximately 85%.

The test system of test [2] is cell line (Ba/F3-derived) expressing JMΔ27. Description: Apoptosis induction in Ba/F3-derived cell line. The class given is cell-based. As to the method: as §1
For a further test, the system named is BxPC-3. In words: WST-1 cell proliferation and viability assay. The class given is cell-based. The procedure:
(§2) Pancreatic, colon and prostate cancer cell lines (generous gift from Dr. Juan Iovanna, INSERM U624, Marseille, France), breast and ovarian cancer cell lines (generous gift from Dr. Patrice Dubreuil, UMR 599 INSERM, Marseille, France), and lung cancer cell line (generous gift from Pr. Christian Auclair, UMR 8113 CNRS) were cultured as monolayers in RPMI 1640 medium containing L-glutamine supplemented with 100 U/mL penicillin and 100 μg/mL streptomycin, and 10% v/v heat-inactivated foetal calf serum (AbCys Lot SO2823S1800) under standard culture conditions (5% CO2, 95% air in humidified chamber at 37° C.).
(§3) During proliferation assay, all cells were grown in medium containing 1% FCS.
(§4) Colorimetric cell proliferation and viability assay (reagent WST-1 purchased from Roche cat N° 1644807)
(§5) The cells were washed once and resuspended in RPMI 1% FCS. Cells at 1.10^4/50 μl were plated per well of a 96 well plate.
(§6) Drug dilutions were prepared in a 96 well plate and obtained by sequential dilutions of AB1010 or gemcitabine in RPMI 1.
(§7) Treatment was started by the addition of 50 μl of a 2× concentrated drug solution to a final volume of 100 μl.
(§8) For treatment with combination of AB1010 and gemcitabine, the cells were first resuspended in medium RPMI 1% FCS containing AB1010 at the concentrations of 0, 2, 5 and 10 μM. 1.10^4 cells/50 μl were plated per well of a 96 wells plate and the plates placed in the incubator o/n before treatment with cytotoxic agents. Cytotoxic agent treatment was initiated by addition of 50 μl of a 2× drug dilution (and containing the respective AB1010 drug concentration) to a final volume of 100 μl. AB1010 final concentrations remained 0, 2, 5 and 10 μM. After incubating for 48-72 hours at 37° C., 10 μl of a ½ dilution of WST-1 reagent was added to each well and the plates were returned to the incubator for an additional 4 hours. The absorbance of the samples was measured at 490 nm using an EL800 Universal microplate reader (Bio-Tek Instruments Inc.).
(§9) A background control without cells was used as a blank for the ELISA reader.
(§10) The positive control of the assay corresponds to the cell proliferation obtained in the absence of drug treatment (100% proliferation).
(§11) Each sample was done in duplicate, the absorbance values were transferred to an excel file, the average and standard deviation of the duplicates were calculated and expressed as a percentage of the proliferation obtained in absence of treatment.
(§12) To determine the IC50 concentration of gemcitabine on pancreatic cell lines, the cells were grown in 1% FCS and exposed to different doses of the drug.
(§13) To determine the IC50 concentration of gemcitabine used in association with AB1010, pancreatic cell lines grown in 1% FCS were pre-treated with AB1010 for about 12-16 hours before being exposed to different doses of the gemcitabine.

A further test has as its system Capan-2. Description: WST-1 cell proliferation and viability assay. In kind it is cell-based. As to the method: as §2, §3, §4, §5, §6, §7, §8, §9, §10, §11, §12, §13
(Formazan colour is commonly taken as a measure of viable cells.)

In another test the test system is Panc-1. In words: WST-1 cell proliferation and viability assay. In kind it is cell-based. The procedure: as §2, §3, §4, §5, §6, §7, §8, §9, §10, §11, §12, §13
A further test concerns Mia Paca-2. Description: WST-1 cell proliferation and viability assay. The class given is cell-based. The following applies: for sensitization to gemcitabine by pre-treatment: MiaPaca-2, pre-treatment 12-16 hours (AB1010 5 and 10 μM; STI571 up to 10 μM) before gemcitabine. As to the method: as §2, §3, §4, §5, §6, §7
as §8, with “AB1010 final concentrations remained 0, 2, 5 and 10 μM. After incubating for 48-72 hours at 37° C., 10 μl of a ½ dilution of WST-1 reagent was added to each well and the plates were returned to the incubator for an additional 4 hours.” left out
A background control without cells was used as a blank for the ELISA reader. […]
(§14) Each sample was done in duplicate, the absorbance values were transferred to an excel file, the average and standard deviation of the duplicates were calculated and expressed as a percentage of the proliferation obtained in absence of treatment. […]

The next test deals with colon HT-29. In words: WST-1 proliferation assay, sensitization to gemcitabine. The class given is cell-based. The following applies: colon HT-29, the one resistant line in which sensitivity was not restored. As to the method:
as §2, §3, §4, §5, §8, §11
(§15) In order to evaluate the ability of AB1010 to sensitize other tumour types to gemcitabine, we performed similar studies on prostate, lung, ovarian and colon tumour cell lines.

In test [3] the test system is lung A549 and H1299 cell lines. Described as above. In kind it is cell-based. The following applies: AB1010 pre-treatment. The procedure:
as §2, §3, §4, §5, §8, §11, §15

The subject of test [4] is ovarian OVCAR-3 cell lines. Described as above. The class given is cell-based. The following applies: AB1010 pre-treatment. As to the method:
as §2, §3, §4, §5, §8, §11, §15

For test [5], the system named is prostate DU145, and C4-2 cell lines. Described as above. In kind it is cell-based. To be noted: AB1010 pre-treatment. As to the method: as §2, §3, §4, §5, §8, §11, §15
The test system of test [6] is rectum HRT-18, and colon Caco-2 and SW-480 cell lines. The description is as above. To be noted: rectum HRT-18, colon Caco-2 and SW-480; AB1010 pre-treatment. The class given is cell-based. The procedure:
as §2, §3, §4, §5, §8, §11, §15

In another test the test system is breast tumour cell lines. Description: WST-1 proliferation assay, breast lines with docetaxel. The class given is cell-based. The procedure:
as §2, §3, §4
(§16) The cells were washed once and resuspended in RPMI 1% FCS. […]
(§17) For treatment with combination of AB1010 and gemcitabine, the cells were first resuspended in medium RPMI 1% FCS containing AB1010 at the concentrations of 0, 2, 5 and 10 μM. […] The absorbance of the samples was measured at 490 nm using an EL800 Universal microplate reader (Bio-Tek Instruments Inc.).
as §14

Test [7] concerns ovarian tumour cell lines. Description: WST-1 proliferation assay, ovarian lines with paclitaxel. In kind it is cell-based. The procedure:
as §2, §3, §4, §16, §17, §14

The test system of a further test is HRT-18. Description: WST-1 proliferation assay, sensitization to Irinotecan. The class given is cell-based. The following applies: most resistant colorectal cell line HRT-18; AB1010 pre-treatment. The procedure: as §2, §3, §4, §5
[…] The absorbance of the samples was measured at 490 nm using an EL800 Universal microplate reader (Bio-Tek Instruments Inc.).
as §14

For test [8], the target named is T1, FAK kinase (Homo sapiens, UniProt Q05397). Description: SelectScreen kinase Profiling (Invitrogen), purified kinases. The class given is biochemical. To be noted: inhibitor at 1 μM (1,000 nM); for inhibition at 1 µM: read-out: Percentage of inhibition of FAK kinase activity.
T1 sequence (Q05397 whole entry): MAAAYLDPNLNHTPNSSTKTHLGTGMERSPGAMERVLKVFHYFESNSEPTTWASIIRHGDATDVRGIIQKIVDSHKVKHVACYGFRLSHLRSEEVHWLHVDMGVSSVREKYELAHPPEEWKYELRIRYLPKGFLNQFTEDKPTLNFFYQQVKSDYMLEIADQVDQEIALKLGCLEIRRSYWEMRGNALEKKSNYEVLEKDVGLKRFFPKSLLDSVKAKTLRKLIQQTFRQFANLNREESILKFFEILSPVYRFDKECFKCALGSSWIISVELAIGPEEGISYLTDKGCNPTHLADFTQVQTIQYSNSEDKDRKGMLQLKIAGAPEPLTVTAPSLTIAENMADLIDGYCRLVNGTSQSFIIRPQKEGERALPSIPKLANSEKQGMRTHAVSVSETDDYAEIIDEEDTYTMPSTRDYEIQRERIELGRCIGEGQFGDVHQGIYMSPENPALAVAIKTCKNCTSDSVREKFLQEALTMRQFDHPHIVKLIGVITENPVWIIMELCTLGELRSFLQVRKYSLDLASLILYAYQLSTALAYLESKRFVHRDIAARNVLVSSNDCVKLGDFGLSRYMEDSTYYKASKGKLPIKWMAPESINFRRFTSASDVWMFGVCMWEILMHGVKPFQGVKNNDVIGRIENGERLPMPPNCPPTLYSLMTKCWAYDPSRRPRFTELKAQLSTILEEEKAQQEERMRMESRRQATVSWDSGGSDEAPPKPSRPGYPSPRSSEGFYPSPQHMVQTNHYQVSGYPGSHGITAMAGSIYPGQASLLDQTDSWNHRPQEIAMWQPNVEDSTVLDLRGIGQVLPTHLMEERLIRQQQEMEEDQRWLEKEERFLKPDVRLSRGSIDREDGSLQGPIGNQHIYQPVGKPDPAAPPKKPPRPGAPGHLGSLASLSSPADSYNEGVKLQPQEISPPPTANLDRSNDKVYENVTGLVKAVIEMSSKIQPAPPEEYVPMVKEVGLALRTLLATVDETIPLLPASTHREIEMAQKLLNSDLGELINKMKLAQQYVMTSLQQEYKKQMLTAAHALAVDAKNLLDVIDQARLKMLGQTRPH
In test [9] the target is T1, FAK kinase. Description: Western blot of FAK activation status (anti PY / anti phospho FAK). The class given is cell-based. The following applies: FIG. 3B. An excerpt: Pancreatic tumour cells lines are described to express high level of the non-receptor tyrosine kinase FAK that contributes to resistance to gemcitabine. […] By the use of either anti PY or anti phospho FAK antibodies, we studied by western blot assay the activation status of FAK kinase.

Broadly, the inhibition is how much of the control response was suppressed.

“Also recorded” adds a separate entry of the source.

Turning to `Cc1ccc(NC(=O)c2ccc(CN3CCN(C)CC3)cc2)cc1Nc1nc(-c2cccnc2)cs1` [AB1010, 4-(4-Methyl-piperazin-1-ylmethyl)-N-[4-methyl-3-(4-pyridin-3-yl-thiazol-2-ylamino)-phenyl]-benzamide], the values for the apoptosis induced result in test [1] and in [2] were “approximately 50%” and “approximately 85%”, respectively. For the same compound, the “sensitization to gemcitabine by pre-treatment” value is recorded as “not observed” in the test with BxPC-3 (gemcitabine-sensitive BxPC-3, AB1010 pre-treatment); “not observed” in the test on Capan-2 (gemcitabine-sensitive Capan-2, AB1010 pre-treatment); “reverse resistance” with Panc-1 (Panc-1, AB1010 5 and 10 μM pre-treatment 12-16 hours before gemcitabine); “reverse resistance” in the test with Mia Paca-2. The “restoration of sensitivity to gemcitabine” value with colon HT-29 is recorded as “except one”. Moreover, the sensitization to gemcitabine result in [3] is “AB1010 sensitizes lung A549 and H1299 cell lines to gemcitabine”; in test [4], “AB1010 sensitizes ovarian OVCAR-3 cell lines to gemcitabine”; in test [5], “AB1010 sensitizes prostate DU145, and C4-2 cell lines to gemcitabine”; in test [6], “AB1010 sensitizes rectum HRT-18, and colon Caco-2 and SW-480”. Besides, in the test with breast tumour cell lines (docetaxel-resistant breast cancer cell lines, AB1010 pre-treatment), the sensitization to docetaxel entry is reported as “good sensitization by AB1010 for 6 out of 11”. Besides, the “restoration of sensitivity to Paclitaxel” value in test [7] (resistant ovarian tumour cell lines, AB1010 pre-treatment) is recorded as “restores sensitivity”. In the test on HRT-18, the “sensitization to Irinotecan (CPT-11)” value is “good sensitization”. Also, the inhibition at 1 µM on FAK kinase [8] stood at 21%. The “inhibition of FAK autoactivation” value against FAK kinase [9] was “inhibits partially”.
With `CC(=O)O[C@@]12CO[C@@H]1C[C@H](O)[C@@]1(C)C(=O)[C@H](O)C3=C(C)[C@@H](OC(=O)[C@H](O)[C@@H](NC(=O)OC(C)(C)C)c4ccccc4)C[C@@](O)([C@@H](OC(=O)c4ccccc4)[C@H]21)C3(C)C` [Docetaxel, reference compound], the “sensitivity to Docetaxel” value in the test on breast tumour cell lines (breast cancer cell lines, drug alone) is listed as “most of the breast cancer cell lines tested exhibit resistance”.
On to `CC(C)(C)n1nc(-c2ccc(Cl)cc2)c2c(N)ncnc21` [PP2], for which, at FAK kinase [8], the “Percentage of inhibition of FAK kinase activity” value came to 75%.
Turning to `CC(=O)O[C@H]1C(=O)[C@@]2(C)[C@H]([C@H](OC(=O)c3ccccc3)[C@]3(O)C[C@H](OC(=O)[C@H](O)[C@@H](NC(=O)c4ccccc4)c4ccccc4)C(C)=C1C3(C)C)[C@]1(OC(C)=O)CO[C@@H]1C[C@@H]2O` [Paclitaxel, reference compound], the “sensitivity to Paclitaxel” value in test [7] (five ovarian cell lines, drug alone) is given as “Three out of the five ovarian cell lines tested exhibit strong sensitivity”.
For the compound `Cc1ccc(NC(=O)c2ccc(CN3CCN(C)CC3)cc2)cc1Nc1nccc(-c2cccnc2)n1` [STI571], the “sensitization to gemcitabine by pre-treatment” value in the test on Mia Paca-2 is on record as “does not sensitize; also recorded: does not lead to the same result”. On FAK kinase [8], the inhibition at 1 µM was 9%.
For the compound `Nc1ccn(C2OC(CO)C(O)C2(F)F)c(=O)n1` (stereo not shown) [gemcitabine, 4-amino-1-[3,3-difluoro-4-hydroxy-5-(hydroxymethyl)tetrahydrofuran-2-yl]-1H-pyrimidin-2-one, reference compound], the IC50 was in the range of 2 to 20 nM in the test on BxPC-3 (Homo sapiens, BxPC-3, 1% FCS, drug alone, read-out: IC50, inhibition of proliferation) and 2 to 20 nM in the test with Capan-2 (Homo sapiens, Capan-2, 1% FCS, drug alone, read-out: IC50, inhibition of proliferation). Besides, the sensitivity to gemcitabine result in the test with Panc-1 (Panc-1, 1% FCS, drug alone) is recorded as “lack of sensitivity”; in the test on Mia Paca-2 (Mia Paca-2, 1% FCS, drug alone) it was “lack of sensitivity”.
